Source: PMC5771956 (Nature chemical biology, 2017)
“Also recorded” adds a separate entry of the source.

Key:
D2 I184A^EL2 mutant [1] = biological target: T1, D2 I184A^EL2 mutant (Homo sapiens, UniProt P14416, I184A); experiment: cell-based; assay type: cell-based; settings: for effect of I184A mutation on β-arrestin2 recruitment: Tango
[2] = biological target: T2, D2 dopamine receptor (D2R) (Homo sapiens, UniProt P14416); experiment: Bias calculation, Gi/o activity versus β-arrestin2 recruitment; assay type: cell-based; settings: for bias factor: arrestin recruitment over Gi/o signaling, relative to quinpirole
[3] = biological target: T2, D2 dopamine receptor (D2R); experiment: cell-based; settings: for Emax: read-out: D2 Gi/o Emax, D2 wild-type, normalized to quinpirole
human D2Long = human D2Long (Homo sapiens, UniProt P14416); experiment: cell-based; settings: for Emax: read-out: D2 β-arrestin2 Emax, D2 wild-type, Tango, normalized to quinpirole
D2 I184A^EL2 mutant [4] = biological target: T1, D2 I184A^EL2 mutant; experiment: Competitive binding kinetics with [3H] NMSP at I184A mutant
[5] = test system: β2AR EL2.52 F194 mutants (alanine, leucine, isoleucine); experiment: β-arrestin2 recruitment by Tango at β2AR EL2 mutants; assay type: cell-based

T1 sequence (P14416 whole entry I184A): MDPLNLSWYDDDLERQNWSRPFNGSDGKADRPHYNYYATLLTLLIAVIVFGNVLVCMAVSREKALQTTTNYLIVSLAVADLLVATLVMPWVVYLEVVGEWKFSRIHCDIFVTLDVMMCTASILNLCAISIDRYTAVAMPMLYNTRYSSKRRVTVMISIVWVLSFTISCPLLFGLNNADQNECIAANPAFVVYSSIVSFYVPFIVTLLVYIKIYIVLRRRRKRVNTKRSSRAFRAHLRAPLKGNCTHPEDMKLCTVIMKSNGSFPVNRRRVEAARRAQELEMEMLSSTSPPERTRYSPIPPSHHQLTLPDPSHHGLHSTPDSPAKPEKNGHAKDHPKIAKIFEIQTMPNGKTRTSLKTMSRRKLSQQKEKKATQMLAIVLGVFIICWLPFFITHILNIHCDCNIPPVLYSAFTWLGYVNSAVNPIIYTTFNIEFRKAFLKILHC
Sequence of human D2Long (P14416 whole entry): as the sequence (P14416 whole entry I184A) above, with A184I counted along it
T2 sequence (P14416 whole entry): as the sequence (P14416 whole entry I184A) above, with A184I counted along it

SMILES	effect of I184A mutation on β-arrestin2 recruitment (D2 I184A^EL2 mutant [1])	bias factor [2]	Emax [3] [%]	Emax (human D2Long) [%]	also measured
O=C1CCc2ccc(OCCCCN3CCCN(c4cccc(Cl)c4Cl)CC3)nc2N1 [UNC 9975, reference compound]	no change in arrestin recruitment efficacy	–	–	–	–
Clc1cccc(C2CCN(CCCOc3ccc4scnc4c3)CC2)c1Cl [UNC 9994, reference compound]	no change in arrestin recruitment efficacy	–	–	–	–
Cc1cc2c(N3CCN(CCCCOc4ccc5c(c4)NC(=O)CC5)CC3)cccc2[nH]1 [compound 6, 7-(4-(4-(2-methyl-1H-indol-4-yl)piperazin-1-yl)butoxy)-3,4-dihydroquinolin-2(1H)-one]	selectively abolishing; also recorded: partial but not complete loss of arrestin recruitment efficacy	1.3	86	78	SFSR summary (signaling profile) ([2]; Gi/o versus arrestin activity): no preference for arrestin recruitment over G protein activation; EC50 [3]: 0.49 nM; EC50 (human D2Long): 0.62 nM; EC50 (D2 I184A^EL2 mutant [1]): 2.7 nM; Emax (D2 I184A^EL2 mutant [1]; read-out: β-arrestin2 Emax at I184A): 40%
Cc1cc2c(N3CCN(CCCCOc4ccc5c(c4)NC(=O)CC5)CC3)cccc2n1C [compound 7, 7-(4-(4-(1,2-Dimethyl-1H-indol-4-yl)piperazin-1-yl)butoxy)-3,4-dihydroquinolin-2(1H)-one]	almost completely abolishes	20	60	78	increase in off-rate at I184A compared to D2R wild-type (D2 I184A^EL2 mutant [4]): 6.2 fold; increase in on-rate at I184A compared to D2R wild-type (D2 I184A^EL2 mutant [4]): 6.7 fold
CC(C)NC[C@H](O)c1ccc(O)c(O)c1 [isoproterenol, (−)-isoproterenol bitartrate]	–	–	–	–	β-arrestin2 recruitment at β2AR EL2 mutants [5]: substantially reduced
